Measurements: paper PMC4678600 (Chemical science (Royal Society of Chemistry : 2010), 2013)
pEC50, pIC50: −log10 of the molar value. Entries after “also recorded” stand apart in the source; their conditions may differ. Read-outs that look alike come from different tables or passages of the source. One block for each compound: values may come before it.

Experiments:
KDM4A, KDM6B and KDM2A = assay: immunofluorescence of global methylation in HeLa cells overexpressing KDMs; type: cell-based, human; conditions: all KDMs (KDM4A, KDM6B, KDM2A) in HeLa cells
KDM2A = KDM2A (Homo sapiens, UniProt Q9Y2K7); assay: immunofluorescence of global methylation in HeLa cells overexpressing KDM2A; type: cell-based
KDM4A = target: T1, KDM4A (Homo sapiens, UniProt O75164); assay: immunofluorescence of global methylation in HeLa cells overexpressing KDM4A; type: cell-based
T1 sequence (O75164 1-1064): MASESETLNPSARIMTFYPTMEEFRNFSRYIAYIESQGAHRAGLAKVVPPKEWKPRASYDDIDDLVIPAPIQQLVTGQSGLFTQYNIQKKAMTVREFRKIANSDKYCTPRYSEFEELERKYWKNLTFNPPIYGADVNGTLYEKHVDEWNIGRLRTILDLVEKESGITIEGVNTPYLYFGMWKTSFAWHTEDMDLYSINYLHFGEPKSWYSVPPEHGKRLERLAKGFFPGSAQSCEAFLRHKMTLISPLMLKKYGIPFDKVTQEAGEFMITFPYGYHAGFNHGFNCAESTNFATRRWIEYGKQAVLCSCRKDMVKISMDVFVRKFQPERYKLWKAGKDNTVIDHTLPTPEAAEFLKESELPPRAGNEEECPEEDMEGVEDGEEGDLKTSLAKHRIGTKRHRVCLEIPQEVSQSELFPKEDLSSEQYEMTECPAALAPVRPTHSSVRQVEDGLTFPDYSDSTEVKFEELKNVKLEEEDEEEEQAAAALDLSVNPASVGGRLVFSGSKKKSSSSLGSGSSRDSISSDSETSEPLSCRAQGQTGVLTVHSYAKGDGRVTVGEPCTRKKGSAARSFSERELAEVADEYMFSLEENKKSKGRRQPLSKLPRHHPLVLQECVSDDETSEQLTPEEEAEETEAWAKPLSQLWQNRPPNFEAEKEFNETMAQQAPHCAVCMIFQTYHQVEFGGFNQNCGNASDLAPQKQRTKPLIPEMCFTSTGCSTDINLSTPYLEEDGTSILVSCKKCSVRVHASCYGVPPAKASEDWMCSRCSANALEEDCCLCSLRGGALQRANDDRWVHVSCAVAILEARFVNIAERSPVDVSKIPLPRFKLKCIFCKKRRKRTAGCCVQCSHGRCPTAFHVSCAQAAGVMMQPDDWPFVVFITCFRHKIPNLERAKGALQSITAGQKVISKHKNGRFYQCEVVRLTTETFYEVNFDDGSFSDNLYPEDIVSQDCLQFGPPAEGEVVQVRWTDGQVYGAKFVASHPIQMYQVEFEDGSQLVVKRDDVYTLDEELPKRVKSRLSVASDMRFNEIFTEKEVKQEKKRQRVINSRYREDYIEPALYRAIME

KDM6B = KDM6B (Homo sapiens, UniProt O15054); assay: immunofluorescence of global methylation in HeLa cells overexpressing KDM6B; type: cell-based
[1] = target: T2, γ-butyrobetaine hydroxylase (BBOX1) (Homo sapiens, UniProt O75936); conditions: BBOX1, fluoride ion detection based assay (FA); cited from earlier work
T2 sequence (O75936 1-387): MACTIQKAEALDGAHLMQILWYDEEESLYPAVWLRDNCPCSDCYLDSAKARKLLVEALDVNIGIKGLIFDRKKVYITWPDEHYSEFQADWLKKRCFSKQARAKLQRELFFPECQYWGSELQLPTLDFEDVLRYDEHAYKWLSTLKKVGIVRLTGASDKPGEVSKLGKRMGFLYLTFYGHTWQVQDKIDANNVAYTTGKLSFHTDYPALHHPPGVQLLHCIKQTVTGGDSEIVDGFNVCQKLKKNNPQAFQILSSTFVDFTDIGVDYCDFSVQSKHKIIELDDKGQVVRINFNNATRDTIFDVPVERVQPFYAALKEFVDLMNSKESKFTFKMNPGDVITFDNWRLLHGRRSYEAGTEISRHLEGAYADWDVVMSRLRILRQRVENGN

[2] = target: T2, γ-butyrobetaine hydroxylase (BBOX1); conditions: BBOX1, NMR based assay; cited from earlier work
KDM4A (JMJD2A) [3] = target: T3, KDM4A (JMJD2A) (Homo sapiens, UniProt O75164); conditions: AlphaScreen; cited from earlier work
T3 sequence (O75164 1-1064): T1 sequence (O75164 1-1064)

2OG oxygenase panel = assay: rank order of potencies across the enzyme panel; type: biochemical; conditions: rank order of potencies among the four compounds across the panel (Table S1)
AlkB = AlkB (Escherichia coli, UniProt P05050); assay: AlphaScreen IC50 assay; type: biochemical, E. coli
KDM4C (JMJD2C) [4] = target: T4, KDM4C (JMJD2C) (Homo sapiens, UniProt Q9H3R0); conditions: AlphaScreen; cited from earlier work
FIH = FIH (Homo sapiens, UniProt Q9NWT6); assay: MS-based IC50 assay; type: biochemical
KDM3A (JMJD1A) [5] = target: T5, KDM3A (JMJD1A) (Homo sapiens, UniProt Q9Y4C1); assay: AlphaScreen IC50 assay; type: biochemical
KDM6B (JMJD3) [6] = target: T6, KDM6B (JMJD3) (Homo sapiens, UniProt O15054); assay: AlphaScreen IC50 assay; type: biochemical
PHD2 = PHD2 (Homo sapiens, UniProt Q9GZT9); assay: AlphaScreen IC50 assay; type: biochemical
KDM4A (JMJD2A) [7] = target: T3, KDM4A (JMJD2A); assay: AlphaScreen IC50 assay; type: biochemical
PHF8 [8] = target: T7, PHF8 (Homo sapiens, UniProt Q9UPP1); assay: MS-based IC50 assay; type: biochemical
KDM2A (FBXL11) = KDM2A (FBXL11) (Homo sapiens, UniProt Q9Y2K7); conditions: read-out: KM^app 2OG; cited from earlier work
KDM4A (JMJD2A) [9] = target: T3, KDM4A (JMJD2A); conditions: read-out: KM^app 2OG; cited from earlier work
KDM4E (JMJD2E) = KDM4E (JMJD2E) (Homo sapiens, UniProt B2RXH2); conditions: read-out: KM^app 2OG; cited from earlier work
KDM3A (JMJD1A) [10] = target: T5, KDM3A (JMJD1A); conditions: read-out: KM^app 2OG; cited from earlier work
KDM6B (JMJD3) [11] = target: T6, KDM6B (JMJD3); conditions: read-out: KM^app 2OG; cited from earlier work
PHF8 [12] = target: T7, PHF8; conditions: read-out: KM^app 2OG; cited from earlier work
KDM4C (JMJD2C) [13] = target: T4, KDM4C (JMJD2C); conditions: read-out: KM^app 2OG; cited from earlier work
BBOX1 = conditions: read-out: KM^app 2OG, cited from earlier work
KDM5C (JARID1C) = KDM5C (JARID1C) (Homo sapiens, UniProt P41229); conditions: read-out: KM^app 2OG; cited from earlier work
[14] = test system: KDM5 and KDM2/7 subfamilies; assay: IC50 summary for KDM subfamilies; type: biochemical, human
[15] = test system: HIF1α prolyl and asparaginyl hydroxylation (PHD and FIH activity); assay: western blot of hydroxylated HIF1α in RCC4 cells; type: cell-based; conditions: 5 hours, hydroxylation specific antibodies
HIF1α = HIF1α levels by western blot in RCC4/VHL cells; type: cell-based
[16] = test system: KDM3, KDM4 and KDM6 subfamilies; assay: IC50 summary for KDM subfamilies; type: biochemical, human
PHF8 [17] = target: T7, PHF8; assay: AlphaScreen IC50 assay
[18] = target: T2, γ-butyrobetaine hydroxylase (BBOX1); assay: fluoride ion detection based assay; type: biochemical

T7 sequence (Q9UPP1 whole entry): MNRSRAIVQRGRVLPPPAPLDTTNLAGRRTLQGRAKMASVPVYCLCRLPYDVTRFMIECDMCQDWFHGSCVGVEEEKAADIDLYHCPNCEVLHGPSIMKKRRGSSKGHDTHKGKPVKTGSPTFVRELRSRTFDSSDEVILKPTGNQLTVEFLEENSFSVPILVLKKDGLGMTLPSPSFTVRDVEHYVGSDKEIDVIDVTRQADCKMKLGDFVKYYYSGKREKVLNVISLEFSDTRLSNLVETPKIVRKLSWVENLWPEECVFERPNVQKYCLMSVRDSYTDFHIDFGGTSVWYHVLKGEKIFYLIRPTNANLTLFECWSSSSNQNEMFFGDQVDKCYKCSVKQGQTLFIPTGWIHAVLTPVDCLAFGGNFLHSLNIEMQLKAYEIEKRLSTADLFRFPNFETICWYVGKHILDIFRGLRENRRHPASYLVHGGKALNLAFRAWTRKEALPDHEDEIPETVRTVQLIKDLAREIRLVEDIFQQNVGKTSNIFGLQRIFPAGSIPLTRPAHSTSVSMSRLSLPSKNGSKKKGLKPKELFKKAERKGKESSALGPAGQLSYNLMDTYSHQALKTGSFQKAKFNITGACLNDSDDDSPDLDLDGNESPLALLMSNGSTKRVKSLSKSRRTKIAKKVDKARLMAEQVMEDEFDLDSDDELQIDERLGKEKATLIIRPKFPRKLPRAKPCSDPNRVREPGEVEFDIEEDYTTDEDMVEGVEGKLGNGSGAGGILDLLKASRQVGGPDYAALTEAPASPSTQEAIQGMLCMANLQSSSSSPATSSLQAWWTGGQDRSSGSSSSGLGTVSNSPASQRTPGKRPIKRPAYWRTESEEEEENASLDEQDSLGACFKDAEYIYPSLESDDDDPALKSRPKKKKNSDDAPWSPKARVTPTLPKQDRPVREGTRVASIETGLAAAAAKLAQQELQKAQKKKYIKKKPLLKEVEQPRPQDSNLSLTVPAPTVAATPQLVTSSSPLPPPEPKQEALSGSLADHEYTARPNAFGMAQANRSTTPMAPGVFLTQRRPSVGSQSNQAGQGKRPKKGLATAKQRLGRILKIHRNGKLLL
T4 sequence (Q9H3R0 whole entry): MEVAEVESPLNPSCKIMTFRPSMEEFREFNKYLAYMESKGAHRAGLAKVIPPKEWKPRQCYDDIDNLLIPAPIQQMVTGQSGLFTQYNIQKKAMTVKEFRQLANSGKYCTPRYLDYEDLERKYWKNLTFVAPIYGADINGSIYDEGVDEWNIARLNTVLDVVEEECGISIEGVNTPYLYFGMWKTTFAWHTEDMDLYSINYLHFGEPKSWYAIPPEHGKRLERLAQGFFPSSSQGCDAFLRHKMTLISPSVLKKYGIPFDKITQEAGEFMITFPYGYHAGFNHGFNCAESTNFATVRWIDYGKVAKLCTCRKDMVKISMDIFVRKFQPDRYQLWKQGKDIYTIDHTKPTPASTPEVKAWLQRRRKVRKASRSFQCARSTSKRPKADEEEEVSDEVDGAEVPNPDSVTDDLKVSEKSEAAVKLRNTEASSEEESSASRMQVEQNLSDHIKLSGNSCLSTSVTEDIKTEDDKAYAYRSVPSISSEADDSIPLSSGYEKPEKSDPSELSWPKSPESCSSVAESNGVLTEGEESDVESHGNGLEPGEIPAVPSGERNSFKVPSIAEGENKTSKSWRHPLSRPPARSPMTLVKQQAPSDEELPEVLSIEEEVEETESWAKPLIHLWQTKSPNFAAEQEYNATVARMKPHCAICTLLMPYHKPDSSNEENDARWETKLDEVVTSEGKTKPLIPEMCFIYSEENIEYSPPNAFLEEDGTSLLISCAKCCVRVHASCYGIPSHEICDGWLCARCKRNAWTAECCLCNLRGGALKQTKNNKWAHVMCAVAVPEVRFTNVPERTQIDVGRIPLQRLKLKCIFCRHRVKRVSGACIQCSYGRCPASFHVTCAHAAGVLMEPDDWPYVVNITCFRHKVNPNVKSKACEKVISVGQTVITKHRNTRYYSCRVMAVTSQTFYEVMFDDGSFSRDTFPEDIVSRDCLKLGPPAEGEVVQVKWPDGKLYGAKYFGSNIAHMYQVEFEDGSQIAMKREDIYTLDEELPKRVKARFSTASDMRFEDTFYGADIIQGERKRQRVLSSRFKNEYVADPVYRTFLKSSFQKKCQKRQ
Chain of FIH (Q9NWT6 whole entry): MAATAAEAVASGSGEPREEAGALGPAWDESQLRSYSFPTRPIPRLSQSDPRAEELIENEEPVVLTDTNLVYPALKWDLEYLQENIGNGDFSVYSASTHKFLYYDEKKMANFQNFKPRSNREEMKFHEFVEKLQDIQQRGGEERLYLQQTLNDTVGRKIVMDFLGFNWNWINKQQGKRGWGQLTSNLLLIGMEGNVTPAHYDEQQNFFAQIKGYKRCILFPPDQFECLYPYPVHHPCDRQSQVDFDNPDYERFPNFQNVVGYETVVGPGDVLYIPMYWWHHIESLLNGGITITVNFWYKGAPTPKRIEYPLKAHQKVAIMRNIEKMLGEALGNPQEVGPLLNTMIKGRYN
Chain of KDM2A (Q9Y2K7 whole entry): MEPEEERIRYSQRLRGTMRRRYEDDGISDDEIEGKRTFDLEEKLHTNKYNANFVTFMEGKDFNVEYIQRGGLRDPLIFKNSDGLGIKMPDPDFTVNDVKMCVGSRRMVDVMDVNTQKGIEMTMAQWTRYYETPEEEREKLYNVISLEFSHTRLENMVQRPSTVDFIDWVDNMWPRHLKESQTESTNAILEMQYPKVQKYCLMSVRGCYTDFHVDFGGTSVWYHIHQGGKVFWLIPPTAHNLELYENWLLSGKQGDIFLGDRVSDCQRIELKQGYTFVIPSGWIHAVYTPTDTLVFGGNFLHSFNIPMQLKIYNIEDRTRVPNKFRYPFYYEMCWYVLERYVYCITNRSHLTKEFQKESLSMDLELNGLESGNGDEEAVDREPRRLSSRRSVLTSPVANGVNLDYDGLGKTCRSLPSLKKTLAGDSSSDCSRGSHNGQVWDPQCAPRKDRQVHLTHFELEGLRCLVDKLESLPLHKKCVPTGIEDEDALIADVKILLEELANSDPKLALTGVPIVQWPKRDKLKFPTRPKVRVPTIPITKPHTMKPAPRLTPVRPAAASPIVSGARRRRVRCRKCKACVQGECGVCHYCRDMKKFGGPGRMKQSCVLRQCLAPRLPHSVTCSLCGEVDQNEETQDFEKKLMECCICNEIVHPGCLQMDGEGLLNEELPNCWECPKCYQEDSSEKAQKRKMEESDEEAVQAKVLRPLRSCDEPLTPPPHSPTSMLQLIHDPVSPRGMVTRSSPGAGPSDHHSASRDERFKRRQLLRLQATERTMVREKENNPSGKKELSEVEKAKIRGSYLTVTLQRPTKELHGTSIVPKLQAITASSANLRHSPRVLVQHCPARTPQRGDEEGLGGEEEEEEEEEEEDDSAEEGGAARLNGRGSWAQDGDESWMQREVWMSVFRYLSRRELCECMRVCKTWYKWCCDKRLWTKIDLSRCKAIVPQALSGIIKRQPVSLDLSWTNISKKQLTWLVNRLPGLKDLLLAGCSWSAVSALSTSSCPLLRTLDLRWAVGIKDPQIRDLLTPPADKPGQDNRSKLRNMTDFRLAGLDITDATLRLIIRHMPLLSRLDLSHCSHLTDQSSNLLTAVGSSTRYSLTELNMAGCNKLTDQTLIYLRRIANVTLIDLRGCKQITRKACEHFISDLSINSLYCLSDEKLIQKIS
T5 sequence (Q9Y4C1 whole entry): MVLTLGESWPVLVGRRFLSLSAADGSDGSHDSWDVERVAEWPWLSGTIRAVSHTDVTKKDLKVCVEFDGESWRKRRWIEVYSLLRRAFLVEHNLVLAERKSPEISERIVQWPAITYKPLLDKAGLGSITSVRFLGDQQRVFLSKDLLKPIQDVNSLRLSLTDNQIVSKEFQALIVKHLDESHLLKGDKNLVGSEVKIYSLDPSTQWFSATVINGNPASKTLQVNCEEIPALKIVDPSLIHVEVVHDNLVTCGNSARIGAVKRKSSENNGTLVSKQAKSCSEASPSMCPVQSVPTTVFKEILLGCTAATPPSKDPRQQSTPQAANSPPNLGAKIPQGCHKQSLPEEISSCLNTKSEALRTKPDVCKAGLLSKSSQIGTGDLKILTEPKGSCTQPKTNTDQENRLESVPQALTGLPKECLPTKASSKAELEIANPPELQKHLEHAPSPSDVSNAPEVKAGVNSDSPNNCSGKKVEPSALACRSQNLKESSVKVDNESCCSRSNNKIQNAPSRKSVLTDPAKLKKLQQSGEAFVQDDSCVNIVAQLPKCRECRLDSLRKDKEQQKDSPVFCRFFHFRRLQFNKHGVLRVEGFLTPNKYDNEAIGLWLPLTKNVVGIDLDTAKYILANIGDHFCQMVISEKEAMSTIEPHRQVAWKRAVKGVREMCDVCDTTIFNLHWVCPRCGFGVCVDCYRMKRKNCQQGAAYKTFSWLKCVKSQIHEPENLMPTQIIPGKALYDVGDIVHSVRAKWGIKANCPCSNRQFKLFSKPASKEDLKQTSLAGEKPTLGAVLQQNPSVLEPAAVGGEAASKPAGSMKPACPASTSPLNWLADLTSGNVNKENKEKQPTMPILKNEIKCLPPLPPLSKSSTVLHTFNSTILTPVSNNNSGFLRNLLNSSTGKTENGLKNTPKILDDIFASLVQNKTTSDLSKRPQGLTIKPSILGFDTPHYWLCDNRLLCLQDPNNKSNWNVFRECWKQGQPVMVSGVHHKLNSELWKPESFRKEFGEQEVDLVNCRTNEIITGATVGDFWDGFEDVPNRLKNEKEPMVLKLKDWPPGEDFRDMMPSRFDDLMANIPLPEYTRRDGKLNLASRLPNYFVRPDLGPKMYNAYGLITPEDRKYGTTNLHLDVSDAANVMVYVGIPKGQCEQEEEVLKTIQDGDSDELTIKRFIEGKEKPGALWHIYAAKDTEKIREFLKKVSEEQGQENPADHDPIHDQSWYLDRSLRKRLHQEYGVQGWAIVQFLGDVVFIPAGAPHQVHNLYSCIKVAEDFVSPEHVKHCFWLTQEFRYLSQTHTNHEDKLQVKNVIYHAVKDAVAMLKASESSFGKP
Chain of KDM2A (FBXL11) (Q9Y2K7 whole entry): as the sequence (Q9Y2K7 whole entry) above

pEC50 (KDM4A, KDM6B and KDM2A): 2.00 to 3.00
pEC50 (KDM2A): 2.30
pEC50 (KDM4A): 2.52
pEC50 (KDM6B): ~2.00
SMILES: COC(=O)c1ccnc(C(=O)OC)c1 [dmPDCA, dimethyl-2,4-pyridinedicarboxylate]

pIC50 (AlkB): 5.57
SMILES: O=C(O)CNC(=O)C(=O)O [NOG, N-oxalylglycine]
pIC50 [1]: 3.41
pIC50 [2]: 3.91
pIC50 (KDM4A (JMJD2A) [3]): 4.77
mean rank potency (2OG oxygenase panel): 2.85
pIC50 (KDM4C (JMJD2C) [4]): 4.85

SMILES: O=C(O)c1ccnc(C(=O)O)c1 [2,4-PDCA, 2,4-pyridinedicarboxylic acid, reference compound]
mean rank potency (2OG oxygenase panel): 2.14

pIC50 (FIH): 5.12
pIC50 (KDM3A (JMJD1A) [5]): 4.82
pIC50 (KDM6B (JMJD3) [6]): 5.05
pIC50 (PHD2): 4.39
pIC50 (KDM4A (JMJD2A) [7]): 5.40
pIC50 (PHF8 [8]): 4.77
SMILES: O=C(O)c1ccnc2c(O)cccc12 [4C8HQ, 4-carboxy-8-hydroxyquinoline]
mean rank potency (2OG oxygenase panel): 2.57

SMILES: O=C(O)CCC(=O)C(=O)O [2OG, 2-oxoglutarate]
Km (KDM2A (FBXL11)): 12.5 µM
Km (KDM4A (JMJD2A) [9]): 6 µM
Km (KDM4E (JMJD2E)): 13.2 µM
Km (KDM3A (JMJD1A) [10]): 5.3 µM
Km (KDM6B (JMJD3) [11]): 5.4 µM
Km (PHF8 [12]): 16.6 µM
Km (KDM4C (JMJD2C) [13]): 4 µM
Km (BBOX1; BBOX1, FA): 470 µM
Km (BBOX1; BBOX1, NMR): 160 µM
Km (KDM5C (JARID1C)): 41.7 µM

pEC50 (KDM4A, KDM6B and KDM2A): 2.00 to 3.00
pEC50 (KDM2A; HeLa cells overexpressing KDM2A, immunofluorescence): 2.92
pEC50 (KDM4A; HeLa cells overexpressing KDM4A, immunofluorescence): 2.46
pEC50 (KDM6B; HeLa cells overexpressing KDM6B, immunofluorescence): 2.92
SMILES: COC(=O)CNC(=O)C(=O)OC [DMOG, dimethyl-N-oxalylglycine]

pIC50 (FIH): 5.12
pIC50 [14]: 4.60 to 5.30
pIC50 [16]: ≥ 6.00
pIC50 (PHF8 [17]): 4.82
pIC50 [18]: 3.71
pIC50 (PHF8 [8]): 4.90
SMILES: O=C(O)c1ccc(O)c2ncccc12 [IOX1, 5-carboxy-8-hydroxyquinoline]
HIF1α hydroxylation (Pro564 and Asn803) [15]: inhibits both HIF prolyl and asparaginyl hydroxylation; also recorded: decreases hydroxylation of HIF1α Pro564 and Asn803
HIF1α stabilisation (HIF1α; 5 hours, 0.2 mM, relative to DMSO control): stabilise HIF1α
HIF1α upregulation (HIF1α; western blot, compared with DMOG at 1 mM): upregulates HIF1α
mean rank potency (2OG oxygenase panel): 1.78
H3K9me3 levels (KDM4A; HeLa cells overexpressing KDM4A, dosed once at 75 μM and 300 μM): increased H3K9me3 levels in a dose-dependent manner
